Key:
WEE1 = target: T1, WEE1 (Homo sapiens, UniProt P30291); assay: Selectivity versus WEE1 assay (ADP-Glo enzymatic assay); type: biochemical; settings: for IC50: ADP-Glo; for PKMYT1 vs. WEE1 selectivity: fold difference in selectivity for PKMYT1 over WEE1
T1 construct: purchased Thermo Fisher PR7373A
Summary of the method: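 Same format as the PKMYT1 assay: WEE1 at 15 nM final with 30 µM ATP, 60 min at 26° C, ADP-Glo luminescence detection, IC50 by dose-response fitting.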

[1] = target: T2, Cellular PKMYT1 Biomarker CDK1 pT14 (Homo sapiens, UniProt Q99640); assay: Inhibition of cellular PKMYT1 biomarker CDK1 pT14 in OVCAR 3 cells (immunoblot); type: cell-based; settings: 20 hours incubation
T2 construct: read-out CDK1 phospho-T14 immunoblot
T2 sequence (Q99640 1-499): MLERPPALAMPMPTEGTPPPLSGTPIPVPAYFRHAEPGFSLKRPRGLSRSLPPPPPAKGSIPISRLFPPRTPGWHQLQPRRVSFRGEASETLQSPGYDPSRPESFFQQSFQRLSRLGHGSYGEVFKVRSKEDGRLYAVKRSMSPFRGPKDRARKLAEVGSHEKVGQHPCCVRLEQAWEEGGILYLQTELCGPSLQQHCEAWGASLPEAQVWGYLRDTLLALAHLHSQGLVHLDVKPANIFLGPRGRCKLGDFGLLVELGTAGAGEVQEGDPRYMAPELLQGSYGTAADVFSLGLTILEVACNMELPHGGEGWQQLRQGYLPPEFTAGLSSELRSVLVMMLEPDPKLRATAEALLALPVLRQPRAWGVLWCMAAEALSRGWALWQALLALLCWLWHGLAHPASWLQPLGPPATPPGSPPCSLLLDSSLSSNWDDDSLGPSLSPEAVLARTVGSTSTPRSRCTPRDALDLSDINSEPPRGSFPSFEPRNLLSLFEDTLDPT
Protocol: To determine compound PKMYT1 IC50 in a cellular assay, OVCAR 3 cells were incubated at 37° C. in 5% CO2 atmosphere. The cells were maintained in RPMI medium supplemented with 20% foetal bovine serum, 1X non essential amino acids, 1 mM sodium pyruvate, Glutamax and insulin. Cells were seeded into 12-well plates at low density (50,000-200,000 cells per well), grown to confluence (~350-400,000 cells per well) and then treated with a range of concentrations of PKMYT1 inhibitors. The cells were incubated 20 hours and then harvested into 1X Laemmli Sample Buffer (BIORAD) without 2-mercaptoethanol, heated to 95° C. for 5 min, centrifuged and sonicated using a microprobe for 15 sec, 21W to shear the DNA.
The samples were analysed by immunoblot on a Jess Automated Western Blot System (BioTechne). The samples were separated using the 12-230 kDa Separation Module (BioTechne,) and blotted using an anti-CDK1 phospho T14 antibody (Abcam, #ab58509) and an anti-vinculin antibody (Abcam, #126002). Specific binding was detected by fluorescence using the Anti-Rabbit Detection Module (BioTechne, #DM-001), quantified using Compass for Simple Western software, and IC50 values were calculated by regression analysis in GraphPad Prism.

Human PKMYT1 = target: T3, Human PKMYT1 (Homo sapiens, UniProt Q99640); assay: PKMYT1 biochemical ADP-Glo enzymatic assay; settings: ADP-Glo
T3 construct: Human PKMYT1 75-362 was cloned as a TEV cleavable 6xHis fusion; 6xHis (TEV cleavable) (cleaved yes); made in house; host or cells: bacterial cells
T3 sequence (Q99640 75-362): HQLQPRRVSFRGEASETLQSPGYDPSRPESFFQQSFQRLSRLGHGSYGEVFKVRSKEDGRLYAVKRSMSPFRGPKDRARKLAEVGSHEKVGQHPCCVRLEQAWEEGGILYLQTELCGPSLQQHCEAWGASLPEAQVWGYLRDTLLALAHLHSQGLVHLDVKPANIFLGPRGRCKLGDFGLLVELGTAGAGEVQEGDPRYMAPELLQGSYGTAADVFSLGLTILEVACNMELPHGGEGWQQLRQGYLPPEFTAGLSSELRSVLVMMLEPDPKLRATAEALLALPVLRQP
Summary of the method: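 Measures inhibition of PKMYT1 autonomous ATP hydrolysis: bacterially expressed human enzyme (75-362, tag cleaved) at 15 nM with 500 µM ATP for 60 min at 26 °C, then ADP-Glo Max detection. IC50s accepted only when replicates agreed within 3-fold and curve r2 exceeded 0.9.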

KYSE-30 cells = assay: Cancer cell line proliferation assay, ATP-based cell viability (Cell Titre Glow), KYSE-30 (normal CCNE1); settings: Homo sapiens, KYSE-30 cells (normal CCNE1), concentration that achieves 50% cell growth proliferation inhibition, read-out: KYSE30 Gl50
Summary of the method: (§1)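 GI50 reflects half-maximal growth inhibition by PKMYT1 inhibitors, derived by curve fitting of CellTiter-Glo luminescence signals.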

OVCAR 3 cells = assay: Cancer cell line proliferation assay, ATP-based cell viability (Cell Titre Glow), OVCAR 3 (CCNE1-amplified); settings: KYSE30 (normal CCNE1) GI50 vs. OVCAR 3 (CCNE1-amplified) GI50
Summary of the method: as §1

[2] = PKMYT1 kinase domain 15 nM, banded values

T1 sequence (P30291 whole entry): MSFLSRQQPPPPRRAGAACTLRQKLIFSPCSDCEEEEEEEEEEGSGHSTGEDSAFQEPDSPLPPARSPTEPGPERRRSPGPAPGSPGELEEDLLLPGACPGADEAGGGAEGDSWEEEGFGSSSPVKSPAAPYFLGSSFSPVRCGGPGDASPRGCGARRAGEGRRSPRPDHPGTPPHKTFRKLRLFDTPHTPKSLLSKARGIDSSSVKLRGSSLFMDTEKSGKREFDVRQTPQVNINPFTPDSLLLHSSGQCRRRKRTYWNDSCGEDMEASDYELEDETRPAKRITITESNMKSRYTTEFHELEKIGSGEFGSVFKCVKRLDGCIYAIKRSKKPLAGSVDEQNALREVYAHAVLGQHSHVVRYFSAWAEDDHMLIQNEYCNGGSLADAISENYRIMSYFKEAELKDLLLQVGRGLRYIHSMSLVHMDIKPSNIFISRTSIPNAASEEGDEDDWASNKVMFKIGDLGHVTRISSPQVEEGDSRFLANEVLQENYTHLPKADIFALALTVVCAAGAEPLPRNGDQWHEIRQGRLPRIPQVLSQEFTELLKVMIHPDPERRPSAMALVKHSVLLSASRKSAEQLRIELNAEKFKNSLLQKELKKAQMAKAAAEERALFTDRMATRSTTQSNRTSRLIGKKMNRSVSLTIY

Row | IC50 (WEE1; 15 nM WEE1, 60 minutes at 26° C., banded) | PKMYT1 vs. WEE1 selectivity (WEE1; banded, ">N" = at least in this band but could be higher) | IC50 [1] | IC50 (Human PKMYT1; 15 nM PKMYT1 kinase domain, 500 µM ATP, 60 minutes at 26° C., banded) | IC50 (WEE1; WEE1 15 nM, banded values) | PKMYT1 vs. WEE1 selectivity (WEE1; banded) | IC50 (Human PKMYT1; [2]) | SMILES | GI50 (KYSE-30 cells) | Selectivity ratio KYSE30 Gl50 vs. OVCAR3 Gl50 (OVCAR 3 cells)
1 | > 11 µM | Y (1000-5000 fold) | 100 to 1000 nM | 50 to 1000 nM |  |  |  | Cc1cc(Nc2ncc(C(=O)Nc3c(C)ccc(O)c3C)s2)n(C2CCCC2)n1 [BAA-231, 2-((1-cyclopentyl-3-methyl-1H-pyrazol-5-yl)amino)-N-(3-hydroxy-2,6-dimethylphenyl)thiazole-5-carboxamide] |  | 
2 |  |  | < 100 nM |  | 1 to 11 µM | X (100-<1000 fold) | < 50 nM | Cc1ccc(O)c(C)c1NC(=O)c1cnc(Nc2cccc(F)n2)s1 [BAA-406, 2-((6-fluoropyridin-2-yl)amino)-N-(3-hydroxy-2,6-dimethylphenyl)thiazole-5-carboxamide] |  | 
3 |  |  | 100 to 1000 nM |  | > 11 µM | Y (1000-5000 fold) | < 50 nM | Cc1ccc(O)c(C)c1NC(=O)c1cnc(Nc2ncccc2F)s1 [BAA-411, 2-((3-fluoropyridin-2-yl)amino)-N-(3-hydroxy-2,6-dimethylphenyl)thiazole-5-carboxamide] |  | 
4 |  |  | 100 to 1000 nM |  | > 11 µM | Z (>5000 fold) | < 50 nM | Cc1ccc(O)c(C)c1NC(=O)c1cnc(Nc2ncccc2C2CC2)s1 [BAA-412, 2-((3-cyclopropylpyridin-2-yl)amino)-N-(3-hydroxy-2,6-dimethylphenyl)thiazole-5-carboxamide] |  | 
5 |  |  | 100 to 1000 nM |  | > 11 µM | Z (>5000 fold) | < 50 nM | Cc1ccc(O)c(C)c1NC(=O)c1cnc(Nc2ncc(F)cc2F)s1 [BAA-413, 2-((3,5-difluoropyridin-2-yl)amino)-N-(3-hydroxy-2,6-dimethylphenyl)thiazole-5-carboxamide] |  | 
6 |  |  | < 100 nM |  | > 11 µM | X (100-<1000 fold) | < 50 nM | Cc1cccnc1Nc1ncc(C(=O)Nc2c(C)ccc(O)c2C)s1 [BAA-415, N-(3-hydroxy-2,6-dimethylphenyl)-2-((3-methylpyridin-2-yl)amino)thiazole-5-carboxamide] |  | 
7 |  |  | < 100 nM |  | > 11 µM | X (100-<1000 fold) | 50 to 1000 nM | Cc1ccc(O)c(C)c1NC(=O)c1cnc(Nc2nn(C)c3ccc(C(F)(F)F)cc23)s1 [BAA-454, N-(3-hydroxy-2,6-dimethylphenyl)-2-((1-methyl-5-(trifluoromethyl)-1H-indazol-3-yl)amino)thiazole-5-carboxamide] |  | 
8 |  |  | 100 to 1000 nM |  | > 11 µM | Y (1000-5000 fold) | < 50 nM | Cc1cn(CC(F)F)nc1Nc1nnc(C(=O)Nc2c(C)ccc(O)c2C)s1 [BAA-464, 5-((1-(2,2-Difluoroethyl)-4-methyl-1H-pyrazol-3-yl)amino)-N-(3-hydroxy-2,6-dimethylphenyl)-1,3,4-thiadiazole-2-carboxamide] |  | 
9 |  |  | < 100 nM |  | 0.05 to 1 µM | W (10-<100 fold) | < 50 nM | Cc1cn(CC#N)nc1Nc1ncc(C(=O)Nc2c(C)ccc(O)c2C)s1 [BAA-467, 2-((1-(cyanomethyl)-4-methyl-1H-pyrazol-3-yl)amino)-N-(3-hydroxy-2,6-dimethylphenyl)thiazole-5-carboxamide] |  | 
10 |  |  | 100 to 1000 nM |  | > 11 µM | X (100-<1000 fold) | 50 to 1000 nM | Cn1cc(Br)c(Nc2ncc(C(=O)Nc3c(Cl)ccc(O)c3F)s2)n1 [BAA-471, 2-((4-Bromo-1-methyl-1H-pyrazol-3-yl)amino)-N-(6-chloro-2-fluoro-3-hydroxyphenyl)thiazole-5-carboxamide] |  | 
11 |  |  | 100 to 1000 nM |  | 1 to 11 µM | X (100-<1000 fold) | < 50 nM | Cc1ccc(O)c(C)c1NC(=O)c1cnc(Nc2nn(C)cc2Br)s1 [BAA-473, 2-((4-bromo-1-methyl-1H-pyrazol-3-yl)amino)-N-(3-hydroxy-2,6-dimethylphenyl)thiazole-5-carboxamide] |  | 
12 |  |  |  |  | > 11 µM | X (100-<1000 fold) | 50 to 1000 nM | CCN(CC)C(=O)C(C)n1nc(Nc2ncc(C(=O)Nc3c(C)ccc(O)c3C)s2)cc1C (stereo not shown) [BAA-509, 2-((1-(1-(diethylamino)-1-oxopropan-2-yl)-5-methyl-1H-pyrazol-3-yl)amino)-N-(3-hydroxy-2,6-dimethylphenyl)thiazole-5-carboxamide] | > 5 µM | Y (>20 fold)
13 |  |  |  |  | > 11 µM | Y (1000-5000 fold) | < 50 nM | CCN(CC)C(=O)C(C)n1ccc(Nc2ncc(C(=O)Nc3c(C)ccc(O)c3C)s2)n1 (stereo not shown) [BAA-512, 2-((1-(1-(diethylamino)-1-oxopropan-2-yl)-1H-pyrazol-3-yl)amino)-N-(3-hydroxy-2,6-dimethylphenyl)thiazole-5-carboxamide] | > 5 µM | Y (>20 fold)
14 |  |  | 100 to 1000 nM |  | 1 to 11 µM | X (100-<1000 fold) | < 50 nM | Cc1cn(CC(=O)N(C)CCC#N)nc1Nc1ncc(C(=O)Nc2c(C)ccc(O)c2C)s1 [BAA-523, 2-((1-(2-((2-cyanoethyl)(methyl)amino)-2-oxo-ethyl)-4-methyl-1H-pyrazol-3-yl)amino)-N-(3-hydroxy-2,6-dimethylphenyl)thiazole-5-carboxamide] |  | 
15 |  |  |  |  | 1 to 11 µM | X (100-<1000 fold) | < 50 nM | Cc1ccc(O)c(C)c1NC(=O)c1cnc(Nc2nn(C)cc2Cl)s1 [BAA-541, 2-((4-chloro-1-methyl-1H-pyrazol-3-yl)amino)-N-(3-hydroxy-2,6-dimethylphenyl)thiazole-5-carboxamide] | > 5 µM | Y (>20 fold)
16 |  |  |  |  | 1 to 11 µM | W (10-<100 fold) | < 50 nM | Cc1ccc(O)c(C)c1NC(=O)c1cnc(Nc2nn(CCBr)cc2Cl)s1 [BAA-574, 2-((1-(2-Bromoethyl)-4-chloro-1H-pyrazol-3-yl)amino)-N-(3-hydroxy-2,6-dimethylphenyl)thiazole-5-carboxamide] | 0.5 to 5 µM | X (3-20 fold)
17 |  |  |  |  | 1 to 11 µM | X (100-<1000 fold) | < 50 nM | COC[C@@H]1CCCN1C(=O)Cn1cc(C)c(Nc2ncc(C(=O)Nc3c(C)ccc(O)c3C)s2)n1 [BAA-606, (S)-N-(3-hydroxy-2,6-dimethylphenyl)-2-((1-(2-(2-(methoxymethyl)pyrrolidin-1-yl)-2-oxoethyl)-4-methyl-1H-pyrazol-3-yl)amino)thiazole-5-carboxamide] | 0.5 to 5 µM | Y (>20 fold)

Reference: patent publication US20260297042A1, “BIARYLAMIDE DERIVATIVES AND THEIR USE AS PKMYT1 INHIBITORS” (CANCER RESEARCH TECHNOLOGY LIMITED, priority 2023, published 2026)
